In ChEMBL document CHEMBL3112559, “Photodynamic inactivation of bioluminescent Escherichia coli by neutral and cationic pyrrolidine-fused chlorins and isobacteriochlorins” (Bioorg Med Chem Lett, 2014):
Calls of active or inactive are those of the source. No cut-off for these calls is given here.

Legend:
Escherichia coli [1] = experiment: Dark toxicity in recombinant Escherichia coli transfected with Vibrio fischeri lux operon at 20 uM after 10 mins by luminometry; type: organism-based; details: in vivo
Escherichia coli [2] = experiment: Antibacterial activity against Escherichia coli transfected with Vibrio fischeri lux operon assessed as log reduction of bioluminescence at 20 uM incubated for 10 mins in dark followed by 43.2 J cm'-2 white light irradiation for 180 mins by luminometry relative to control; type: functional
Escherichia coli [3] = experiment: Antibacterial activity against Escherichia coli assessed as log reduction of bioluminescence at 1 uM incubated for 30 mins followed by 10 J cm'-2 laser light irradiation relative to control; type: functional
Staphylococcus aureus = experiment: Antibacterial activity against Staphylococcus aureus assessed as log reduction of bioluminescence at 1 uM incubated for 30 mins followed by 10 J cm'-2 laser light irradiation relative to control; type: functional
Escherichia coli [4] = experiment: Antibacterial activity against Escherichia coli transfected with Vibrio fischeri lux operon assessed as log reduction of bioluminescence at 5 uM incubated for 10 mins in dark followed by 43.2 J cm'-2 white light irradiation for 180 mins by luminometry relative to control; type: functional
Escherichia coli [5] = experiment: Antibacterial activity against Escherichia coli transfected with Vibrio fischeri lux operon assessed as log reduction of bioluminescence at 20 uM incubated for 10 mins in dark followed by 36 J cm'-2 white light irradiation for 150 mins by luminometry relative to control; type: functional
Escherichia coli [6] = experiment: Dark toxicity in recombinant Escherichia coli transfected with Vibrio fischeri lux operon at 5 uM after 10 mins by luminometry; type: organism-based; details: in vivo

| SMILES | Activity (Escherichia coli [1]) | FC (Escherichia coli [4]) | other results |
| --- | --- | --- | --- |
| CN1CC2c3nc(c(-c4c(F)c(F)c(F)c(F)c4F)c4ccc([nH]4)c(-c4c(F)c(F)c(F)c(F)c4F)c4nc(c(-c5c(F)c(F)c(F)c(F)c5F)c5[nH]c(c3-c3c(F)c(F)c(F)c(F)c3F)C3CN(C)CC53)C=C4)C2C1 (configuration not stated) | Non-toxic |  | FC (Escherichia coli [2]): 0.24 |
| CC1(C)Cc2cc3[nH]c(cc4nc(cc5[nH]c(cc1n2)cc5C(=O)NCCC[N+](C)(CCC[N+](C)(C)C)CCC[N+](C)(C)C)CC4(C)C)cc3C(=O)NCCC[N+](C)(CCC[N+](C)(C)C)CCC[N+](C)(C)C |  |  | FC (Escherichia coli [3]): 6; FC (Staphylococcus aureus): 6 |
| C[N+]1(C)CC2c3nc(c(-c4c(F)c(F)c(F)c(F)c4F)c4ccc([nH]4)c(-c4c(F)c(F)c(F)c(F)c4F)c4nc(c(-c5c(F)c(F)c(F)c(F)c5F)c5[nH]c(c3-c3c(F)c(F)c(F)c(F)c3F)C3C[N+](C)(C)CC53)C=C4)C2C1.[I-].[I-] (configuration not stated) | Non-toxic | >5 | FC (Escherichia coli [5]): 6.1 |
| C[N+]1(C)CC2c3nc(c(-c4c(F)c(F)c(F)c(F)c4F)c4ccc([nH]4)c(-c4c(F)c(F)c(F)c(F)c4F)c4nc(c(-c5c(F)c(F)c(F)c(F)c5F)c5ccc([nH]5)c3-c3c(F)c(F)c(F)c(F)c3F)C=C4)C2C1.[I-] (configuration not stated) | Non-toxic | 0.77 | Activity (Escherichia coli [5]): Active |
| CN1CC2c3nc(c(-c4c(F)c(F)c(F)c(F)c4F)c4ccc([nH]4)c(-c4c(F)c(F)c(F)c(F)c4F)c4nc(c(-c5c(F)c(F)c(F)c(F)c5F)c5ccc([nH]5)c3-c3c(F)c(F)c(F)c(F)c3F)C=C4)C2C1 (configuration not stated) |  | 0.57 | Activity (Escherichia coli [6]): Non-toxic |
